According to patent US11364264B2, “Ex vivo antigen-presenting cells or activated CD-positive T cells for treatment of cancer” (priority 2016, dated 2022):
Read-outs that look alike come from different tables or passages of the source.

How the values were obtained:
[1] = tested on: 40L mouse mesothelioma cell line; assay: Immune profiling by flow cytometry of tissues from 40L tumor-bearing mice; type: in vivo; conditions: for Proportion of CD8+ T cells in total live cells compared to saline: one week after last treatment
[2] = tested on: AE17 mouse mesothelioma cell line; assay: AE17 intraperitoneal malignant mesothelioma model: tumor weight and survival (Example 5); type: in vivo; conditions: VIC-008 20 μg per mouse, AMD3100 1 mg/kg i.p. weekly x4
[3] = tested on: Luc-40L mesothelioma cancer cells; assay: Luc-40L mesothelioma model, survival (Example 4); type: in vivo, mouse; conditions: VIC-008 20 μg and/or AMD3100 1 μg/g body weight once a week for four weeks
[4] = tested on: 40L mouse mesothelioma cell line; assay: 40L intraperitoneal malignant mesothelioma model: tumor weight and survival (Example 5); type: in vivo; conditions: VIC-008 20 μg per mouse, AMD3100 1 mg/kg i.p. weekly x4
[5] = tested on: AE17 mouse mesothelioma cell line; type: in vivo; conditions: for Proportion of CD8+ T cells in total live cells compared to saline: one week after last treatment
[6] = tested on: 40L mouse mesothelioma cell line; assay: Ex vivo restimulation with recombinant mesothelin, intracellular IFN-γ in CD8+ T cells, 40L mice; conditions: splenic CD8+ T cells, restimulated with recombinant mesothelin ex vivo
[7] = tested on: Luc-AE17 mesothelioma cancer cells; assay: Luc-AE17 mesothelioma model, survival (Example 4); type: in vivo, mouse; conditions: VIC-008 20 μg and/or AMD3100 1 μg/g body weight once a week for four weeks
[8] = tested on: GFP-Foxp3 expressing CD4+ splenocytes (Treg cells); conditions: AMD3100 5 μg/ml, 24 hours
[9] = tested on: AE17 mouse mesothelioma cell line; assay: Ex vivo restimulation with recombinant mesothelin, intracellular IFN-γ in CD8+ T cells, AE17 mice; conditions: restimulated with recombinant mesothelin ex vivo

c1cc(CN2CCCNCCNCCCNCC2)ccc1CN1CCCNCCNCCCNCC1 [AMD3100]
Proportion of PD-1-expressing CD8+ T cells compared to saline ([1]; spleens): significantly fewer | Proportions of Treg cells ([1]; spleens): did not alter | Proportion of CD8+ T cells in total live cells compared to saline ([1]; spleens): did not increase | IL-2+ CD40L+ cells among the Foxp3+ CD25− Treg population ([1]; tumors): significantly more cells | Proportion of PD-1-expressing CD8+ T cells compared to saline ([1]; tumors): significantly fewer | Proportions of Treg in tumors compared to saline ([1]; tumors): significantly decreased | Ratio of CD8+ T cells to Treg in tumors compared to saline ([1]; tumors): increased | Ratio of CD25− cells to CD25+ cells within the Foxp3+ population ([1]; tumors): significantly increased | Proportion of CD8+ T cells in total live cells compared to saline ([1]; tumors): did not increase | Animal survival compared to saline [2]: only modest benefit to survival | Survival of tumor-bearing mice compared to saline [3]: slight effect on survival | Animal survival compared to saline [4]: only modest benefit to survival | Cell ratio of CD8+ T cells to Treg cells compared to saline ([5]; lymph nodes): significantly increased | IL-2+ CD40L+ cells among the Foxp3+ CD25− Treg population ([5]; lymph nodes): significantly more cells | Proportion of PD-1-expressing CD8+ T cells compared to saline ([5]; lymph nodes): significantly fewer | Ratio of CD25− cells to CD25+ cells within the Foxp3+ population ([5]; lymph nodes): significantly increased | Treg in the lymph nodes ([5]; lymph nodes): generally reduced | Proportion of CD8+ T cells in total live cells compared to saline ([5]; lymph nodes): did not increase | Proportion of PD-1-expressing CD8+ T cells compared to saline ([5]; spleens): significantly fewer | Proportion of CD8+ T cells in total live cells compared to saline ([5]; spleens): did not increase | Proportion of PD-1-expressing CD8+ T cells compared to saline ([5]; tumors): significantly fewer | Proportions of Treg in tumors compared to saline ([5]; tumors): significantly decreased | Ratio of CD8+ T cells to Treg in tumors compared to saline ([5]; tumors): increased | Proportion of CD8+ T cells in total live cells compared to saline ([5]; tumors): did not increase | Mesothelin-specific IFN-γ expression in CD8+ T cells compared to saline [6]: did not enhance | Survival of tumor-bearing mice compared to saline [7]: slight effect on survival | Ratio of the proportion of CD25− cells to CD25+ cells in the Foxp3+ CD4+ population ([8]; no anti-CD3/CD28 stimulation): did not change | Conversion of Foxp3+ CD25− Treg into IL-2+ CD40L+ cells ([8]; with anti-CD3/CD28 antibodies (1 μg/ml), P=0.0015): converted more | Ratio of the proportion of CD25− cells to CD25+ cells in the Foxp3+ CD4+ population ([8]; with anti-CD3/CD28 antibodies (1 μg/ml), P=0.0017): significantly increased | Mesothelin-specific IFN-γ expression in CD8+ T cells compared to saline ([9]; lymph node CD8+ T cells): did not enhance | Mesothelin-specific IFN-γ expression in CD8+ T cells compared to saline ([9]; splenic CD8+ T cells): did not enhance
